From patent US10022345B2, “Agent for preventing and/or treating veisalgia” (SBI Pharmaceuticals Co., Ltd., priority 2011, dated 2018) come the findings set out here.

The nature of experiment [1]: Example 8: case of hangover therapy, test subject A, capsule of aminolevulinic acid. The experiment is classed as in vivo, human. The settings on record: terrible hangover, one capsule comprising 100 mg. The method, then:
Test subject A who consumed Japanese sake similarly to Example 7 without ingesting any capsules developed a terrible hangover condition. Test subject A ingested one capsule comprising 100 mg of aminolevulinic acid. As a result, symptoms started to recover after 30 minutes had passed since administration, and they had completely recovered after 1.5 hours.

Experiment [2] is described as follows: Example 9: questionnaire total score of ten hangover symptoms with and without ALAs ingestion, fifteen test subjects. It counts as in vivo, human. The settings on record: for Total score After alcohol consumption (same day) / Total score Morning after alcohol consumption: ALAs ingested (10-150 mg total, differs per subject), sum of ten hangover symptom items each scored 0-4, one line per test subject 1-15. On the procedure: The following tests were performed to more quantitatively measure that ALAs are effective for the prevention or therapy of a hangover.
In this experiment, aminolevulinic acid phosphate salt was employed as ALAs.
Each test subject, consumed alcohol in the evening for a total of two times in order to evaluate hangover symptoms in regards to each of (1) when ALAs was ingested and (2) when ALAs was not ingested. In the experiment with ALAs ingestion and the experiment without ALAs ingestion, the order for which of the experiments was performed first and the other of the experiments was performed, later was randomly selected for each test subject. Each experiment was performed with at least a few days apart.
Total amount of alcohol consumption varies by test subject. This is because a moderate amount for each test subject was consumed. Moreover, alcohol consumption was made so that the total amount of the second alcohol consumption was the same as the total amount of the first alcohol consumption (note that as exceptions, (1) the total amount of alcohol consumption when ALAs was ingested and (2) the total amount of alcohol consumption when ALAs was not ingested are not the same for test subjects 1, 2, and 12 in Table 5 below). In Table 5 below, the “total amount of alcohol consumption” indicates a value converted into the total amount of alcohol contained in beer or Japanese sake etc. consumed (in other words, in the case of a 500 ml canned beer, if the alcohol percentage is 5%, it is calculated as […]).
Moreover, for each test subject, the timing of ALAs ingestion (1) when ALAs was ingested was “at the start of alcohol consumption” and/or “after the end of alcohol consumption” as shown in Table 5 below. The ingestion of ALAs (aminolevulinic acid phosphate salt) was performed by selecting at least one from below:
(A) the capsule of Example 1 (contains 50 mg of ALAs),
(B) the capsule of Example 3 (contains 10 mg of ALAs),
(C) “Hanamitsu Drink™” (contains 5 or 10 mg of ALAs, a product generally marketed by the present applicants) for each test subject, ingested in the range of 10 mg-150 mg total.
(A) The body condition “after alcohol consumption on the day of alcohol consumption” (“after alcohol consumption (same day)” in Table 5) and (B) the body condition on “the morning after the day of alcohol consumption” (“morning after alcohol consumption” in Table 5) were quantified with the following scores. In other words, a five-step evaluation (0: no indication, 1: mild, 2: moderate, 3: severe, and 4: profound) was performed for each test subject in regards to the following ten items (a-j) which are hangover symptoms. Then, evaluation values (0-4) for each item were summed for each test subject. The results are described in Table 5 as the “total score” showing hangover symptoms.

Where [3] appears, read: phosphate salt, 10 mg ALAs with 60 mL alcohol.
Where [4] appears, read: phosphate salt, 20 mg ALAs with 70 mL alcohol.
Setting [5] is: phosphate salt, 50 mg ALAs with 14 mL alcohol.
[6] abbreviates: phosphate salt, 50 mg ALAs with 25 mL alcohol.
Where [7] appears, read: phosphate salt, 50 mg ALAs with 45 mL alcohol.
Where [8] appears, read: phosphate salt, 50 mg ALAs with 79 mL alcohol.
[9] abbreviates: phosphate salt, 50 mg ALAs with 108 mL alcohol.
Setting [10] is: phosphate salt, 100 mg ALAs with 50 mL alcohol.
The mark [11] stands for this setting: phosphate salt, 100 mg ALAs with 75 mL alcohol.
Where [12] appears, read: phosphate salt, 100 mg ALAs with 190 mL alcohol.
The mark [13] stands for this setting: phosphate salt, 150 mg ALAs with 129 mL alcohol.

Several values for one entry are separate records, joined by “and”; a condition that tells them apart may be missing. Equal entries are not always repeated. Entries after “also recorded” stand apart in the source; their conditions may differ.

With `NCC(=O)CCC(=O)O` [aminolevulinic acid, 5-aminolevulinic acid], in experiment [1], the “time after administration until hangover symptoms started to recover” value turned out to be 30 min and the “time until complete recovery from hangover” value was found to be 1.5 h.

In the case of “aminolevulinic acid phosphate salt [ALAs]”, the “Total score After alcohol consumption (same day)” value in experiment [2] (setting [3]) is 9; in experiment [2] (setting [4]) it was 1; in experiment [2] (setting [5]), 0; in experiment [2] (setting [6]), 0 (2×) and 3; in experiment [2] (setting [7]), 0; in experiment [2] (setting [8]), 0. Further, the “Total score After alcohol consumption (same day)” value was 0 in experiment [2] (setting [9]); 1 in experiment [2] (setting [10]); 0 in experiment [2] (setting [11]); 9 in experiment [2] (setting [12]); 0 in experiment [2] (setting [13]). Moreover, the “Total score Morning after alcohol consumption” value in experiment [2] (setting [3]) is 2; in experiment [2] (setting [4]) it was 1; in experiment [2] (setting [5]), 0; in experiment [2] (setting [6]), 0 (2×) and 3; in experiment [2] (setting [7]), 0; in experiment [2] (setting [8]) it was 0. Besides, the “Total score Morning after alcohol consumption” value is 0 in experiment [2] (setting [9]); 1 in experiment [2] (setting [10]); 1 and 0 and 2 in experiment [2] (setting [11]); 7 in experiment [2] (setting [12]); 1 in experiment [2] (setting [13]). Further, the “amount of alcohol consumption possible” value in experiment [2] (ALAs ingested at the start of alcohol consumption, test subjects 1 and 2) is “Alcohol consumption at an amount more than usual was possible”. For the same compound, the “hangover symptoms with ALAs ingestion compared to without, conclusions from Table 5” value in experiment [2] (subgroups of test subjects, phosphate salt) is “hangover symptoms were surprisingly mostly reduced; also recorded: Hangover symptoms were generally improved and a prophylactic effect of hangovers was seen; also recorded: no hangover symptoms manifested”.
